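Where inhibition never reached the appropriate level, the endpoint shown equals the highest concentration tested. Otherwise, values were interpolated linearly from a five-concentration, 48-hour dose response in 96-well plates. At the GI50, growth is halved.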 Calls of active or inactive are those of the source. Rule as the data show it: active = GI50 up to about 1.1 µM and inactive = higher.
Columns and labels:
Test in all cases: inhibition of tumour cell growth, NCI panel, 48 h
TK-10 = system: TK-10
IGROV-1 = system: IGROV-1
786-0 = system: 786-0
SNB-75 = system: SNB-75
OVCAR-8 = system: OVCAR-8
RPMI-8226 = system: RPMI-8226
SF-295 = system: SF-295
SK-MEL-2 = system: SK-MEL-2
NCI-H23 = system: NCI-H23
OVCAR-5 = system: OVCAR-5
SW-620 = system: SW-620
MCF7 = system: MCF7
A549 = system: A549
U-251 = system: U-251
SK-OV-3 = system: SK-OV-3
LOX IMVI = system: LOX IMVI
EKVX = system: EKVX
HOP-62 = system: HOP-62
Hs-578T = system: Hs-578T
HCT-15 = system: HCT-15
COLO 205 = system: COLO 205
KM12 = system: KM12
HCT-116 = system: HCT-116
SF-268 = system: SF-268
PC-3 = system: PC-3
OVCAR-3 = system: OVCAR-3
NCI-H460 = system: NCI-H460
A498 = system: A498
DU-145 = system: DU-145
ACHN = system: ACHN
SK-MEL-5 = system: SK-MEL-5
NCI-H522 = system: NCI-H522
HT-29 = system: HT-29
UACC-257 = system: UACC-257
K562 = system: K562
HCC 2998 = system: HCC 2998
NCI-H226 = system: NCI-H226
BT-549 = system: BT-549
M14 = system: M14
UACC-62 = system: UACC-62
NCI/ADR-RES = system: NCI/ADR-RES
CAKI-1 = system: CAKI-1
MOLT-4 = system: MOLT-4
CCRF-CEM = system: CCRF-CEM
UO-31 = system: UO-31
MDA-N = system: MDA-N
OVCAR-4 = system: OVCAR-4
SF-539 = system: SF-539
HOP-92 = system: HOP-92
MDA-MB-435 = system: MDA-MB-435
SR = system: SR
MDA-MB-231 = system: MDA-MB-231
SN12C = system: SN12C
SNB-19 = system: SNB-19
T47D = system: T47D
Malme-3M = system: Malme-3M
HL-60 = system: HL-60
SK-MEL-28 = system: SK-MEL-28

Structure (SMILES): CC(=O)N1C(C(=O)NN2CCOCC2)CSC1c1ccccc1 (configuration not stated)
- GI50 (TK-10): > 100 µM (inactive)
- GI50 (IGROV-1): > 100 µM (inactive)
- GI50 (786-0): > 100 µM (inactive)
- GI50 (SNB-75): > 100 µM (inactive)
- GI50 (OVCAR-8): > 100 µM (inactive)
- GI50 (RPMI-8226): > 100 µM (inactive)
- GI50 (SF-295): > 100 µM (inactive)
- GI50 (SK-MEL-2): > 100 µM (inactive)
- GI50 (NCI-H23): > 100 µM (inactive)
- GI50 (OVCAR-5): > 100 µM (inactive)
- GI50 (SW-620): > 100 µM (inactive)
- GI50 (MCF7): > 100 µM (inactive)
- GI50 (A549): > 100 µM (inactive)
- GI50 (U-251): > 100 µM (inactive)
- GI50 (SK-OV-3): > 100 µM (inactive)
- GI50 (LOX IMVI): > 100 µM (inactive)
- GI50 (EKVX): > 100 µM (inactive)
- GI50 (HOP-62): > 100 µM (inactive)
- GI50 (Hs-578T): > 100 µM (inactive)
- GI50 (HCT-15): > 100 µM
- GI50 (COLO 205): > 100 µM (inactive)
- GI50 (KM12): > 100 µM (inactive)
- GI50 (HCT-116): > 100 µM (inactive)
- GI50 (SF-268): > 100 µM (inactive)
- GI50 (PC-3): > 100 µM (inactive)
- GI50 (OVCAR-3): > 100 µM (inactive)
- GI50 (NCI-H460): > 100 µM (inactive)
- GI50 (A498): > 100 µM (inactive)
- GI50 (DU-145): > 100 µM (inactive)
- GI50 (ACHN): > 100 µM (inactive)
- GI50 (SK-MEL-5): > 100 µM (inactive)
- GI50 (NCI-H522): > 100 µM (inactive)
- GI50 (HT-29): > 100 µM (inactive)
- GI50 (UACC-257): > 100 µM (inactive)
- GI50 (K562): > 100 µM (inactive)
- GI50 (HCC 2998): > 100 µM (inactive)
- GI50 (NCI-H226): > 100 µM (inactive)
- GI50 (BT-549): > 100 µM (inactive)
- GI50 (M14): > 100 µM (inactive)
- GI50 (UACC-62): > 100 µM (inactive)
- GI50 (NCI/ADR-RES): > 100 µM (inactive)
- GI50 (CAKI-1): > 100 µM (inactive)
- GI50 (MOLT-4): > 100 µM (inactive)
- GI50 (CCRF-CEM): > 100 µM (inactive)
- GI50 (UO-31): > 100 µM (inactive)
- GI50 (MDA-N): > 100 µM (inactive)
- GI50 (OVCAR-4): > 100 µM (inactive)
- GI50 (SF-539): > 100 µM (inactive)
- GI50 (HOP-92): > 100 µM (inactive)
- GI50 (MDA-MB-435): > 100 µM (inactive)
- GI50 (SR): > 100 µM (inactive)
- GI50 (MDA-MB-231): > 100 µM (inactive)
- GI50 (SN12C): > 100 µM (inactive)
- GI50 (SNB-19): > 100 µM (inactive)
- GI50 (T47D): > 100 µM (inactive)
- GI50 (Malme-3M): > 100 µM (inactive)

Structure (SMILES): COc1cc2ccc(C(=O)NCCCNC(=O)c3ccc4cc(OC)c(OC)cc4c3)cc2cc1OC
- GI50 (TK-10): > 100 µM (inactive)
- GI50 (IGROV-1): > 100 µM (inactive)
- GI50 (786-0): > 100 µM (inactive)
- GI50 (SNB-75): 32.9 µM (inactive)
- GI50 (OVCAR-8): > 100 µM (inactive)
- GI50 (SF-295): > 100 µM (inactive)
- GI50 (SK-MEL-2): > 100 µM (inactive)
- GI50 (NCI-H23): > 100 µM (inactive)
- GI50 (OVCAR-5): > 100 µM (inactive)
- GI50 (SW-620): > 100 µM (inactive)
- GI50 (MCF7): > 100 µM (inactive)
- GI50 (A549): > 100 µM (inactive)
- GI50 (U-251): > 100 µM (inactive)
- GI50 (SK-OV-3): > 100 µM (inactive)
- GI50 (LOX IMVI): > 100 µM (inactive)
- GI50 (EKVX): > 100 µM (inactive)
- GI50 (HOP-62): > 100 µM (inactive)
- GI50 (Hs-578T): 36.6 µM (inactive)
- GI50 (HCT-15): > 100 µM
- GI50 (COLO 205): > 100 µM (inactive)
- GI50 (KM12): > 100 µM (inactive)
- GI50 (HCT-116): > 100 µM (inactive)
- GI50 (SF-268): > 100 µM (inactive)
- GI50 (PC-3): > 100 µM (inactive)
- GI50 (OVCAR-3): > 100 µM (inactive)
- GI50 (NCI-H460): 33.7 µM (inactive)
- GI50 (A498): > 100 µM (inactive)
- GI50 (DU-145): > 100 µM (inactive)
- GI50 (ACHN): > 100 µM (inactive)
- GI50 (SK-MEL-5): > 100 µM (inactive)
- GI50 (NCI-H522): > 100 µM (inactive)
- GI50 (HT-29): > 100 µM (inactive)
- GI50 (UACC-257): > 100 µM (inactive)
- GI50 (K562): > 100 µM (inactive)
- GI50 (HCC 2998): > 100 µM (inactive)
- GI50 (NCI-H226): > 100 µM (inactive)
- GI50 (BT-549): > 100 µM (inactive)
- GI50 (M14): > 100 µM (inactive)
- GI50 (UACC-62): > 100 µM (inactive)
- GI50 (NCI/ADR-RES): > 100 µM (inactive)
- GI50 (CAKI-1): > 100 µM (inactive)
- GI50 (CCRF-CEM): > 100 µM (inactive)
- GI50 (UO-31): > 100 µM (inactive)
- GI50 (MDA-N): > 100 µM (inactive)
- GI50 (OVCAR-4): 57.8 µM (inactive)
- GI50 (SF-539): 53.3 µM (inactive)
- GI50 (HOP-92): > 100 µM (inactive)
- GI50 (MDA-MB-435): > 100 µM (inactive)
- GI50 (SR): 35.5 µM (inactive)
- GI50 (HL-60): > 100 µM (inactive)
- GI50 (SK-MEL-28): > 100 µM (inactive)
- GI50 (MDA-MB-231): 97.1 µM (inactive)
- GI50 (SN12C): > 100 µM (inactive)
- GI50 (SNB-19): > 100 µM (inactive)
- GI50 (T47D): > 100 µM (inactive)
- GI50 (Malme-3M): > 100 µM (inactive)
